In US20250340671A1, “METHODS AND PHARMACEUTICAL COMPOSITIONS FOR REDUCING THE NEURO[…] OF COCAINE” (University of Cincinnati, priority 2022, published 2025):

Tests used:
[1] = in vivo; cited from earlier work
[2] = test system: lever-pressing behavior in rats; test: Single-dose reinstatement (SDR) of lever-pressing after 12 μmol/kg cocaine; type: in vivo, Male Sprague-Dawley rats; conditions: for average difference in latency between vehicle and SCH23390: 10 nmol/kg SCH23390 alone, absence of h2E2; for mean latency of lever-pressing behavior: 0 nmol/kg gave 17.11, FIG. 6; for mean duration of lever-pressing: 0 nmol/kg gave 35.44, FIG. 7

For CN1CCc2cc(Cl)c(O)cc2[C@@H](c2ccccc2)C1 [SCH23390], the t-max [1] is given as “approximately 30 min”, the “average difference in latency between vehicle and SCH23390” value ([2]; FIG. 9) is given as “about 2.81 minutes” and the “average difference in latency between vehicle and SCH23390” value ([2]; FIG. 9, listed as SCH233390) is given as 2.81 min. For the same compound, the “average duration of lever-pressing activity” value ([2]; 10 nmol/kg SCH23390 before SDR, in the presence of h2E2 (4 separate days from day seven after h2E2), FIG. 10) was 9.28 min, the “average decrease in latency versus the prior day (h2E2 alone)” value ([2]; 10 nmol/kg SCH23390 before SDR, in the presence of h2E2 (from seven days after 360 umol/kg h2E2), FIG. 9) was 2.56 min and the “mean latency of lever-pressing behavior” value ([2]; SCH23390 alone 10 nmol/kg IV before 12 μmol/kg cocaine SDR) was 12.17. For the same compound, the “mean duration of lever-pressing” value ([2]; SCH23390 alone 10 nmol/kg) was 23.16, the “mean latency of lever-pressing behavior” value ([2]; SCH23390 alone 20 nmol/kg IV before 12 μmol/kg cocaine SDR) was 5.17 and the “mean duration of lever-pressing” value ([2]; SCH23390 alone 20 nmol/kg) was 5.43. The “mean latency of lever-pressing behavior” value ([2]; SCH23390 alone 30 nmol/kg IV before 12 μmol/kg cocaine SDR) was 1.72, the “mean duration of lever-pressing” value ([2]; SCH23390 alone 30 nmol/kg) was 2.05 and the average latency ([2]; days with 10 nmol/kg SCH23390 in the presence of h2E2, FIG. 8) was 9.93 min.
